Test results published in US8624027B2, “Combination therapy for treating cancer and diagnostic assays for use therein” (AbbVie Inc., priority 2005, dated 2014).
Read-outs that look alike come from different tables or passages of the source.

Columns and labels:
Bcl-XL protein = Bcl-XL protein (Homo sapiens, UniProt Q07817); experiment: Bcl-XL binding affinity, fluorescence polarization with fluorescein-labeled BAD peptide; settings: Wang's equation, read-out: Target Binding Affinity Ki (Bcl-XL)
Procedure: A mixture comprising 125 μL per well of assay buffer (20 mM phosphate buffer (pH 7.4), 1 mM EDTA, 50 mM NaCl, 0.05% PF-68), 6 nM of Bcl-XL protein (prepared as described in Science 1997, 275, 983-986), 1 nM fluorescein-labeled BAD peptide (prepared in-house) and the DMSO solution of the compound was shaken for 2 minutes and placed in a LJL Analyst (LJL Bio Systems, CA). A negative control (DMSO, 15 nM BAD peptide, assay buffer) and a positive control (DMSO, 1 nM BAD peptide, 6 nM Bcl-XL, assay buffer) were used to determine the range of the assay. Polarization was measured at room temperature using a continuous Fluorescein lamp (excitation 485 nm, emission 530 nm). Percentage of inhibition was determined by (1-((mP value of well-negative control)/range))×100%.

[1] = test system: NCI-H146 human small cell lung carcinoma cells; experiment: Cellular efficacy in human tumor cell line (MTS viability assay); format: cell-based; settings: NCI-H146, 10% human serum, 48 hours
Procedure: NCI-H146 (ATCC, Manassas, Va.) human small cell lung carcinoma cells were plated 50,000 cells per well in 96-well tissue culture plates in a total volume of 100 μL tissue culture medium supplemented with 10% human serum (Invitrogen, Carlsbad, Calif.) instead of fetal bovine serum and treated with a 2-fold serial dilution of the compounds of interest from 10 μM to 0.020 μM. Each concentration was tested in duplicate at least 3 separate times. The number of viable cells following 48 hours of compound treatment was determined using the CellTiter 96® AQueous non-radioactive cell proliferation MTS assay according to manufacturer's recommendations (Promega Corp., Madison, Wis.).

Bcl-2 protein = target: T1, Bcl-2 protein (Homo sapiens, UniProt P10415, DELINS35-91DVEENRTEAPEGTESE, form not given); experiment: Bcl-2 binding affinity, fluorescence polarization with fluorescein-labeled BAX peptide; settings: Wang's equation, read-out: Target Binding Affinity Ki (Bcl-2)
T1 construct: fused on or other part: A short piece of the Bcl-xL (Q07817) loop replaces Bcl-2 loop residues 35-91; The C-terminal membrane anchor is absent
T1 sequence (P10415 with tags, fused parts or gaps with the stated changes): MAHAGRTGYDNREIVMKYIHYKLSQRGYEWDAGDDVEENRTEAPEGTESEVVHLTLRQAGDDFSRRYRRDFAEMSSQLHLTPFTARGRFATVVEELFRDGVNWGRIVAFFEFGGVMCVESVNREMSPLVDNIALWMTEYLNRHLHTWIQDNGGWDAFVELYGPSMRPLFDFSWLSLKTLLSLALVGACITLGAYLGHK

[2] = Pharmacokinetic evaluation in rat; format: in vivo; settings: male, Sprague-Dawley, plasma; for AUC(0-inf): single 5 mg/kg oral dose, Table 1, read-out: Pharmacokinetic area under the plasma concentration Curve (rat) AUC0-∞
Procedure: The pharmacokinetic behavior of compounds of this disclosure was determined following a single 2 mg/kg intravenous or 5 mg/kg oral dose in male Sprague-Dawley derived rats (n=3 per group). The compounds were prepared as 2 mg/mL solution in a 10% DMSO in PEG-400 formulation for both oral and intravenous administration. The 1 mL/kg intravenous dose was administered as a slow bolus (about 1-2 minutes) in the jugular vein of a rat under light ether anesthetic. The oral dose was administered by gavage. Serial blood samples were obtained from a tail vein of each rat prior 0.1 (IV only), 0.25, 0.5, 1, 1.5, 2, 3, 4, 6, 8 and 24 hours after dosing. The heparinized samples were thoroughly mixed and placed in an ice bath. Plasma was separated by centrifugation and stored frozen prior to analysis.
The compounds of interest were separated from the plasma using protein precipitation with acetonitrile. A plasma (100-200 μL, sample or spiked standard) aliquot was combined with 50 μL of internal standard (structurally related analog prepared in acetonitrile) and 1 ml acetonitrile in a 96-well polypropylene deep well plate. The plates were vortexed for 30 seconds followed by centrifugation (3500 rpm×15 minutes, 4° C.). In an automated manner, the supernatant was transferred to a clean 96-well plate. The samples were evaporated to near dryness on a Micro-Vap™ under a stream of dry nitrogen over low heat (˜37° C.). The samples were reconstituted vortexing with 0.2 mL 5% DMSO in acetonitrile. A 0.1-0.2 ml aliquot of acetonitrile: 0.1% trifluoroacetic acid (20:80, by volume) was added to each well, followed by an additional 30 second vortexing. The plates were centrifuged (3500 rpm×15 minutes, 4° C.) prior to HPLC-MS/MS analysis. Samples were analyzed simultaneously with spiked plasma standards. All samples from each study were analyzed as a single batch on the LC-MS/MS.
The compounds of interest and the internal standard were separated from each other and co-extracted contaminants on a 50×3 mm Keystone Betasil CN 5 μm column with an acetonitrile: 0.1% trifluoroacetic acid mobile phase (50:50, by volume) at a flow rate of 0.7 ml/min. Analysis was performed on a Sciex API 300™ Biomolecular Mass Analyzer using a heated nebulizer interface. Peak areas of the title compounds and internal standards were determined using the Sciex MacQuan™ software. Calibration curves were derived from peak area ratio (parent drug/internal standard) of the spiked rat plasma standards using least squares linear regression of the ratio versus the theoretical concentration. The methods were generally linear over the range of the standard curve (correlation coefficients >0.99) with an estimated quantitation limit of 0.01 μg/mL. The plasma concentration data for each animal were submitted to multi-exponential curve fitting using WinNonlin. The area under the plasma concentration-time curve from 0 to t hours (time of the last measurable plasma concentration) after dosing (AUC0-t) was calculated using the linear trapezoidal rule for the plasma concentration-time profiles. The residual area extrapolated to infinity, determined as the final measured plasma concentration (Ct) divided by the terminal elimination rate constant (β), was added to AUC0-t to produce the total area under the curve (AUC0-∞). Ki values shown in the tables below were determined using Wang's equation (Wang Z X., An Exact Mathematical Expression For Describing Competitive Binding Of Two Different Ligands To A Protein Molecule. FEBS Lett. 1995; 360:111-4)).

[3] = Table 1, read-out: NCI-H146 Cellular Efficacy EC50

Sequence of Bcl-XL protein (Q07817 with tags, fused parts or gaps DEL45-84): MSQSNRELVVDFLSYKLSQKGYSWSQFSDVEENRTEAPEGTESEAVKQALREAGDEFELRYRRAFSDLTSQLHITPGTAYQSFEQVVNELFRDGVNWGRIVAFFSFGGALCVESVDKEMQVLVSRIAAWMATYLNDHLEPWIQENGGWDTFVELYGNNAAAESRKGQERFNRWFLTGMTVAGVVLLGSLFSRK

Ki (Bcl-XL protein) | EC50 [1, 3] | Ki (Bcl-2 protein) | AUC(0-inf) [2] | EC50 ([1]; Table 3, read-out: NCI-H146 Cellular Efficacy H146 EC50) | AUC ([2]; 5 mg/kg, oral, Table 3, read-out: Pharmacokinetic area under the plasma concentration Curve (rat) AUC) | Cmax ([2]; 5 mg/kg, oral, Table 3, read-out: Pharmacokinetic peak plasma concentration (rat) Cmax) | Structure (SMILES)
≤ 1 nM | 30.9 nM | ≤ 1 nM | 3.42 µM·h |  |  |  | CC(C)N(C)CC[C@H](CSc1ccccc1)Nc1ccc(S(=O)(=O)NC(=O)c2ccc(N3CCN(CC4=C(c5ccc(Cl)cc5)CC(C)(C)CC4)CC3)cc2)cc1S(=O)(=O)C(F)(F)F [Example 14, N-(4-(4-((2-(4-chlorophenyl)-4,4-dimethylcyclohex-1-en-1-yl)methyl)piperazin-1-yl)benzoyl)-4-(((1R)-3-(isopropyl(methyl)amino)-1-((phenylsulfanyl)methyl)propyl)amino)-3-((trifluoromethyl)sulfonyl)benzenesulfonamide]
≤ 1 nM | 9.9 nM | ≤ 1 nM | 1.25 µM·h |  |  |  | O=C(NS(=O)(=O)c1ccc(N[C@H](CCN2CCCOCC2)CSc2ccccc2)c(S(=O)(=O)C(F)(F)F)c1)c1ccc(N2CCN(CC3=C(c4ccc(Cl)cc4)CCCC3)CC2)cc1 [Example 15, N-(4-(4-((2-(4-chlorophenyl)cyclohex-1-en-1-yl)methyl)piperazin-1-yl)benzoyl)-4-(((1R)-3-(1,4-oxazepan-4-yl)-1-((phenylsulfanyl)methyl)propyl)amino)-3-((trifluoromethyl)sulfonyl)benzenesulfonamide]
≤ 2 nM | 37.4 nM | ≤ 2 nM | 2.37 µM·h |  |  |  | O=C(NS(=O)(=O)c1ccc(N[C@H](CCN2CCCCCC2)CSc2ccccc2)c(S(=O)(=O)C(F)(F)F)c1)c1ccc(N2CCN(CC3=C(c4ccc(Cl)cc4)CCCC3)CC2)cc1 [Example 16, 4-(((1R)-3-(azepan-1-yl)-1-((phenylsulfanyl)methyl)propyl)amino)-N-(4-(4-((2-(4-chlorophenyl)-1-cyclohex-1-en-1-yl)methyl)piperazin-1-yl)benzoyl)-3-((trifluoromethyl)sulfonyl)benzenesulfonamide]
≤ 1 nM | 28.7 nM | ≤ 1 nM | 0.88 µM·h |  |  |  | CN(C)CC[C@H](CSc1ccccc1)Nc1ccc(S(=O)(=O)NC(=O)c2ccc(N3CCN(CC4=C(c5ccc(Cl)cc5)CCCCC4)CC3)cc2)cc1S(=O)(=O)C(F)(F)F [Example 17, N-(4-(4-((2-(4-chlorophenyl)cyclohept-1-en-1-yl)methyl)piperazin-1-yl)benzoyl)-4-(((1R)-3-(dimethylamino)-1-((phenylsulfanyl)methyl)propyl)amino)-3-((trifluoromethyl)sulfonyl)benzenesulfonamide]
≤ 1 nM | 15.4 nM | ≤ 1 nM | 0.61 µM·h | 15 nM | 0.609 µM·h | 59 nM | CN(C)CC[C@H](CSc1ccccc1)Nc1ccc(S(=O)(=O)NC(=O)c2ccc(N3CCN(CC4=C(c5ccc(Cl)cc5)CCCC4)CC3)cc2)cc1S(=O)(=O)C(F)(F)Cl [Example 18, 3-((chloro(difluoro)methyl)sulfonyl)-N-(4-(4-((2-(4-chlorophenyl)cyclohex-1-en-1-yl)methyl)piperazin-1-yl)benzoyl)-4-(((1R)-3-(dimethylamino)-1-((phenylsulfanyl)methyl)propyl)amino)benzenesulfonamide]
≤ 1 nM | 15.8 nM | ≤ 1 nM | 7.12 µM·h |  |  |  | CC1(C)CCC(c2ccc(Cl)cc2)=C(CN2CCN(c3ccc(C(=O)NS(=O)(=O)c4ccc(N[C@H](CCN5CCOCC5)CSc5ccccc5)c(S(=O)(=O)C(F)(F)Cl)c4)cc3)CC2)C1 [Example 19, 3-((chloro(difluoro)methyl)sulfonyl)-N-(4-(4-((2-(4-chlorophenyl)-5,5-dimethylcyclohex-1-en-1-yl)methyl)piperazin-1-yl)benzoyl)-4-(((1R)-3-(morpholin-4-yl)-1-((phenylsulfanyl)methyl)propyl)amino)benzenesulfonamide]
≤ 1 nM | 27.7 nM | ≤ 1 nM | 3.11 µM·h |  |  |  | CN(C)CC[C@H](CSc1ccccc1)Nc1ccc(S(=O)(=O)NC(=O)c2ccc(N3CCN(CC4=C(c5ccc(Cl)cc5)CCC(C)(C)C4)CC3)cc2)cc1S(=O)(=O)C(F)(F)F [Example 20, N-(4-(4-((2-(4-chlorophenyl)-5,5-dimethyl-1-cyclohex-1-en-1-yl)methyl)piperazin-1-yl)benzoyl)-4-(((1R)-3-(dimethylamino)-1-((phenylsulfanyl)methyl)propyl)amino)-3-((trifluoromethyl)sulfonyl)benzenesulfonamide]
≤ 1 nM | 64.3 nM | ≤ 1 nM | 1.81 µM·h |  |  |  | O=C(NS(=O)(=O)c1ccc(N[C@H](CCN2CCOCC2)CSc2ccccc2)c(S(=O)(=O)C(F)(F)F)c1)c1ccc(N2CCN(CC3=C(c4ccc(Cl)cc4)CCOC3)CC2)cc1 [Example 21, N-(4-(4-((4-(4-chlorophenyl)-5,6-dihydro-2H-pyran-3-yl)methyl)piperazin-1-yl)benzoyl)-4-(((1R)-3-(morpholin-4-yl)-1-((phenylsulfanyl)methyl)propyl)amino)-3-((trifluoromethyl)sulfonyl)benzenesulfonamide]
≤ 1 nM | 38.8 nM | ≤ 1 nM | 4.08 µM·h |  |  |  | CC(C)N(C)CC[C@H](CSc1ccccc1)Nc1ccc(S(=O)(=O)NC(=O)c2ccc(N3CCN(CC4=C(c5ccc(Cl)cc5)CC(C)(C)CC4)CC3)cc2)cc1S(=O)(=O)C(F)(F)Cl [Example 22, 3-((chloro(difluoro)methyl)sulfonyl)-N-(4-(4-((2-(4-chlorophenyl)-4,4-dimethylcyclohex-1-en-1-yl)methyl)piperazin-1-yl)benzoyl)-4-(((1R)-3-(isopropyl(methyl)amino)-1-((phenylsulfanyl)methyl)propyl)amino)benzenesulfonamide]
≤ 1 nM | 52.8 nM | ≤ 1 nM | 3.54 µM·h |  |  |  | CC(C)N(C)CC[C@H](CSc1ccccc1)Nc1ccc(S(=O)(=O)NC(=O)c2ccc(N3CCN(CC4=C(c5ccc(Cl)cc5)CCC(C)(C)C4)CC3)cc2)cc1S(=O)(=O)C(F)(F)Cl [Example 23, 3-((chloro(difluoro)methyl)sulfonyl)-N-(4-(4-((2-(4-chlorophenyl)-5,5-dimethylcyclohex-1-en-1-yl)methyl)piperazin-1-yl)benzoyl)-4-(((1R)-3-(isopropyl(methyl)amino)-1-((phenylsulfanyl)methyl)propyl)amino)benzenesulfonamide]
≤ 1 nM | 44.3 nM | ≤ 1 nM | 8.04 µM·h |  |  |  | CC1(C)CCC(CN2CCN(c3ccc(C(=O)NS(=O)(=O)c4ccc(N[C@H](CCN5CCOCC5)CSc5ccccc5)c(S(=O)(=O)C(F)(F)F)c4)cc3)CC2)=C(c2ccc(Cl)cc2)C1 [Example 24, N-(4-(4-((2-(4-chlorophenyl)-4,4-dimethylcyclohex-1-en-1-yl)methyl)piperazin-1-yl)benzoyl)-4-(((1R)-3-(morpholin-4-yl)-1-((phenylsulfanyl)methyl)propyl)amino)-3-((trifluoromethyl)sulfonyl)benzenesulfonamide]
